In patent publication US7709482B2, “Polycyclic heteroaryl substituted triazoles useful as Axl inhibitors” (Rigel Pharmaceuticals, Inc., priority 2006, dated 2010):

Target: T1, Axl (Homo sapiens, UniProt P30530)
T1 construct: endogenous in cells; host or cells: HeLa cells
T1 sequence (P30530 26-894): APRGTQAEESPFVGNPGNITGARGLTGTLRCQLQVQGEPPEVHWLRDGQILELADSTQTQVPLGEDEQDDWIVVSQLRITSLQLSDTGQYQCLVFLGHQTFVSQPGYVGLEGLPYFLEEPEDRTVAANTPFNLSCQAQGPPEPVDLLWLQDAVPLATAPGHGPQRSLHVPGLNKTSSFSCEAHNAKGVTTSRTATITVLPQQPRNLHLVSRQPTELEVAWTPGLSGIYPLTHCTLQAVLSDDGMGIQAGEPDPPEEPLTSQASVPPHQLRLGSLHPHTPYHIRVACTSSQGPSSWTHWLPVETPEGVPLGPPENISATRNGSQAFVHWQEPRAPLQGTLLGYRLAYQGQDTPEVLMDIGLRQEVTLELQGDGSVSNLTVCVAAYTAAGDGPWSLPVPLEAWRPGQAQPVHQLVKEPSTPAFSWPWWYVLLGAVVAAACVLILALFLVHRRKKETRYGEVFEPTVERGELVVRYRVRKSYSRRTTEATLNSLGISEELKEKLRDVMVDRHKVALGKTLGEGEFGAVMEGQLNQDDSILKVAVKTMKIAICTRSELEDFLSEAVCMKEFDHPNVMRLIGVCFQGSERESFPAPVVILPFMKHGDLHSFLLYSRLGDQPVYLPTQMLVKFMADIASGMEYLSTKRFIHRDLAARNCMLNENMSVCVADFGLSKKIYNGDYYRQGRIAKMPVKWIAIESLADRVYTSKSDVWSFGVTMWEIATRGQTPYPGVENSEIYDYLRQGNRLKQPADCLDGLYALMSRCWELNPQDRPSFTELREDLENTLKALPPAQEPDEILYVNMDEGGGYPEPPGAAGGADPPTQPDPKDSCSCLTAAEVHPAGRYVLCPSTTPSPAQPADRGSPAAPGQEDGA
Assay: Phospho-Akt In-Cell Western Assay (inhibition of Axl activity after Axl-antibody cross-linking)
Assay type: cell-based
Conditions: inhibition of Axl activity; Table 1, compounds of formula (Ia); read-out: IC50
Procedure, shortened: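 Phospho-Akt was detected in formaldehyde-fixed cells by in-cell immunostaining with HRP chemiluminescence. Before fixation, HeLa cells kept 24 h in low-serum medium containing 500 ng/mL Axl/Fc received compound for 1 h at 37 °C, followed by 5-min Axl activation through antibody clustering.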

| IC50 | SMILES |
| --- | --- |
| < 1 µM | CN(C)C1CCN(CC=Cc2ccc(Nc3nc(N)n(-c4cc5c(nn4)-c4ccccc4CCC5)n3)cc2)C1 (centres unmarked) [Compound 200, 1-(6,7-dihydro-5H-benzo[6,7]cyclohepta[1,2-c]pyridazin-3-yl)-N^3-(4-(3-dimethylaminopyrrolidin-1-ylprop-1-enyl)phenyl)-1H-1,2,4-triazole-3,5-diamine] |
| < 1 µM | CCN(CC)C1CCN(CC=Cc2ccc(Nc3nc(N)n(-c4cc5c(nn4)-c4ccccc4CCC5)n3)cc2)C1 (centres unmarked) [Compound 201, 1-(6,7-dihydro-5H-benzo[6,7]cyclohepta[1,2-c]pyridazin-3-yl)-N^3-(4-(3-diethylaminopyrrolidin-1-ylprop-1-enyl)phenyl)-1H-1,2,4-triazole-3,5-diamine] |
| < 1 µM | C[C@H]1CN(c2ccc(Nc3nc(N)n(-c4cc5c(nn4)-c4ccccc4CCC5)n3)cn2)CCN1CC1CC1 [Compound 202, 1-(6,7-dihydro-5H-benzo[6,7]cyclohepta[1,2-c]pyridazin-3-yl)-N^3-(2-(3-(S)-methyl-4-cyclopropylmethylpiperazin-1-yl)pyridine-5-yl)-1H-1,2,4-triazole-3,5-diamine] |
| < 1 µM | Nc1nc(Nc2ccc(C=CCN3CCC(N4CCCC4)CC3)cc2)nn1-c1cc2c(nn1)-c1ccccc1CCC2 [Compound 203, 1-(6,7-dihydro-5H-benzo[6,7]cyclohepta[1,2-c]pyridazin-3-yl)-N^3-(4-(4-pyrrolidin-1-ylpiperidin-1-ylprop-1-enyl)phenyl)-1H-1,2,4-triazole-3,5-diamine] |
| < 1 µM | CN1CCN(CC=Cc2ccc(Nc3nc(N)n(-c4cc5c(nn4)-c4ccccc4CCC5)n3)cc2)CC1 [Compound 204, 1-(6,7-dihydro-5H-benzo[6,7]cyclohepta[1,2-c]pyridazin-3-yl)-N^3-(4-(4-methylpiperazin-1-ylprop-1-enyl)phenyl)-1H-1,2,4-triazole-3,5-diamine] |
| < 1 µM | CC(C)N1CCN(CC=Cc2ccc(Nc3nc(N)n(-c4cc5c(nn4)-c4ccccc4CCC5)n3)cc2)CC1 [Compound 205, 1-(6,7-dihydro-5H-benzo[6,7]cyclohepta[1,2-c]pyridazin-3-yl)-N^3-(4-(4-isopropylpiperazin-1-ylprop-1-enyl)phenyl)-1H-1,2,4-triazole-3,5-diamine] |
| < 1 µM | Nc1nc(Nc2ccc(C=CCN3CCN(C4CCCC4)CC3)cc2)nn1-c1cc2c(nn1)-c1ccccc1CCC2 [Compound 206, 1-(6,7-dihydro-5H-benzo[6,7]cyclohepta[1,2-c]pyridazin-3-yl)-N^3-(4-(4-cyclopentylpiperazin-1-ylprop-1-enyl)phenyl)-1H-1,2,4-triazole-3,5-diamine] |
| < 1 µM | Nc1nc(Nc2ccc(C=CCN3CCOCC3)cc2)nn1-c1cc2c(nn1)-c1ccccc1CCC2 [Compound 207, 1-(6,7-dihydro-5H-benzo[6,7]cyclohepta[1,2-c]pyridazin-3-yl)-N^3-(4-(morpholin-4-ylprop-1-enyl)phenyl)-1H-1,2,4-triazole-3,5-diamine] |
| 1 to 10 µM | CCN(CC)CCC1CCCc2ccc(Nc3nc(N)n(-c4cc5c(nn4)-c4ccccc4CCC5)n3)cc2C1O (centres unmarked) [Compound 208, 1-(6,7-dihydro-5H-benzo[6,7]cyclohepta[1,2-c]pyridazin-3-yl)-N^3-(8-diethylaminoethyl-9-hydroxy-6,7,8,9-tetrahydro-5H-benzo[7]annulene-2-yl)-1H-1,2,4-triazole-3,5-diamine] |
| < 1 µM | CN1CCN(c2ccc(Nc3nc(N)n(-c4cc5c(nn4)-c4ccccc4CCC5)n3)cc2F)CC1 [Compound 209, 1-(6,7-dihydro-5H-benzo[6,7]cyclohepta[1,2-c]pyridazin-3-yl)-N^3-(3-fluoro-4-(4-methylpiperazin-1-yl)phenyl)-1H-1,2,4-triazole-3,5-diamine] |
| < 1 µM | CN1CCCC(Oc2ccc(Nc3nc(N)n(-c4cc5c(nn4)-c4ccccc4CCC5)n3)cc2)C1 (centres unmarked) [Compound 210, 1-(6,7-dihydro-5H-benzo[6,7]cyclohepta[1,2-c]pyridazin-3-yl)-N^3-(4-(1-methylpiperidin-3-yl-oxy)phenyl)-1H-1,2,4-triazole-3,5-diamine] |
| > 20 µM | Nc1nc(Nc2ccc(C3CCN(C4CC5CCC4C5)CC3)cc2)nn1-c1cc2c(nn1)-c1ccccc1CCC2 (centres unmarked) [Compound 211, 1-(6,7-dihydro-5H-benzo[6,7]cyclohepta[1,2-c]pyridazin-3-yl)-N^3-(4-(1-bicyclo[2.2.1]heptan-2-yl)-piperidin-4-ylphenyl)-1H-1,2,4-triazole-3,5-diamine] |
| < 1 µM | Nc1nc(Nc2ccc(C3CCN(CC4CC4)CC3)cc2)nn1-c1cc2c(nn1)-c1ccccc1CCC2 [Compound 212, 1-(6,7-dihydro-5H-benzo[6,7]cyclohepta[1,2-c]pyridazin-3-yl)-N^3-(4-(1-cyclopropylmethylpiperidin-4-yl)phenyl)-1H-1,2,4-triazole-3,5-diamine] |
| < 1 µM | Nc1nc(Nc2ccc3c(c2)CNCC3)nn1-c1cc2c(nn1)-c1ccccc1CCC2 [Compound 213, 1-(6,7-dihydro-5H-benzo[6,7]cyclohepta[1,2-c]pyridazin-3-yl)-N^3-(1,2,3,4-tetrahydroisoquinolin-7-yl)-1H-1,2,4-triazole-3,5-diamine] |
| < 1 µM | Nc1nc(Nc2ccc(N3CCN(CC4CC4)CC3)c(F)c2)nn1-c1cc2c(nn1)-c1ccccc1CCC2 [Compound 214, 1-(6,7-dihydro-5H-benzo[6,7]cyclohepta[1,2-c]pyridazin-3-yl)-N^3-(3-fluoro-4-(4-cyclopropylmethylpiperazin-1-yl)phenyl)-1H-1,2,4-triazole-3,5-diamine] |
| < 1 µM | CN1CCC(N2CCc3ccc(Nc4nc(N)n(-c5cc6c(nn5)-c5ccccc5CCC6)n4)cc3C2)CC1 [Compound 215, 1-(6,7-dihydro-5H-benzo[6,7]cyclohepta[1,2-c]pyridazin-3-yl)-N^3-(2-(1-methylpiperidin-4-yl)-1,2,3,4-tetrahydroisoquinolin-7-yl)-1H-1,2,4-triazole-3,5-diamine] |
| < 1 µM | Nc1nc(Nc2ccc3c(c2)CN(CC2CC2)CC3)nn1-c1cc2c(nn1)-c1ccccc1CCC2 [Compound 216, 1-(6,7-dihydro-5H-benzo[6,7]cyclohepta[1,2-c]pyridazin-3-yl)-N^3-(2-(cyclopropylmethyl)-1,2,3,4-tetrahydroisoquinolin-7-yl)-1H-1,2,4-triazole-3,5-diamine] |
| < 1 µM | Nc1nc(Nc2ccc3c(c2)CCC(N2CC[C@H](F)C2)CC3)nn1-c1cc2c(nn1)-c1ccccc1CCC2 (stereo partly drawn) [Compound 217, 1-(6,7-dihydro-5H-benzo[6,7]cyclohepta[1,2-c]pyridazin-3-yl)-N^3-(7-(3-(S)-fluoropyrrolidin-1-yl)-6,7,8,9-tetrahydro-5H-benzo[7]annulene-2-yl)-1H-1,2,4-triazole-3,5-diamine] |
| < 1 µM | C[C@H]1CCCN1C1CCc2ccc(Nc3nc(N)n(-c4cc5c(nn4)-c4ccccc4CCC5)n3)cc2CC1 (stereo partly drawn) [Compound 218, 1-(6,7-dihydro-5H-benzo[6,7]cyclohepta[1,2-c]pyridazin-3-yl)-N^3-(7-(2-(S)-methylpyrrolidin-1-yl)-6,7,8,9-tetrahydro-5H-benzo[7]annulene-2-yl)-1H-1,2,4-triazole-3,5-diamine] |
| < 1 µM | Nc1nc(Nc2ccc3c(c2)CCC(N2CC[C@@H](O)C2)CC3)nn1-c1cc2c(nn1)-c1ccccc1CCC2 (stereo partly drawn) [Compound 219, 1-(6,7-dihydro-5H-benzo[6,7]cyclohepta[1,2-c]pyridazin-3-yl)-N^3-(7-(3-(R)-hydroxypyrrolidin-1-yl)-6,7,8,9-tetrahydro-5H-benzo[7]annulene-2-yl)-1H-1,2,4-triazole-3,5-diamine] |
| < 1 µM | C[C@@H]1CCCN1C1CCc2ccc(Nc3nc(N)n(-c4cc5c(nn4)-c4ccccc4CCC5)n3)cc2CC1 (stereo partly drawn) [Compound 220, 1-(6,7-dihydro-5H-benzo[6,7]cyclohepta[1,2-c]pyridazin-3-yl)-N^3-(7-(2-(R)-methylpyrrolidin-1-yl)-6,7,8,9-tetrahydro-5H-benzo[7]annulene-2-yl)-1H-1,2,4-triazole-3,5-diamine] |
| < 1 µM | Nc1nc(Nc2ccc3c(c2)CCC(N2CC[C@H](O)C2)CC3)nn1-c1cc2c(nn1)-c1ccccc1CCC2 (stereo partly drawn) [Compound 221, 1-(6,7-dihydro-5H-benzo[6,7]cyclohepta[1,2-c]pyridazin-3-yl)-N^3-(7-(3-(S)-hydroxypyrrolidin-1-yl)-6,7,8,9-tetrahydro-5H-benzo[7]annulene-2-yl)-1H-1,2,4-triazole-3,5-diamine] |
| < 1 µM | Nc1nc(Nc2ccc3c(c2)CCC(N2CC[C@@H](F)C2)CC3)nn1-c1cc2c(nn1)-c1ccccc1CCC2 (stereo partly drawn) [Compound 222, 1-(6,7-dihydro-5H-benzo[6,7]cyclohepta[1,2-c]pyridazin-3-yl)-N^3-(7-(3-(R)-fluoropyrrolidin-1-yl)-6,7,8,9-tetrahydro-5H-benzo[7]annulene-2-yl)-1H-1,2,4-triazole-3,5-diamine] |
